From patent US8658697B2 (priority 2004, dated 2014)
Where two headings read alike, the source gives them in different places.

How the values were obtained:
[1] = tested on: Tacaribe virus; assay type: cell-based; details: for EC50: read-out: Tacaribe (CPE) EC50
[2] = tested on: Tacaribe virus; assay type: cell-based; details: read-out: Tacaribe (Plaque reduction) EC50
[3] = tested on: Machupo virus; assay type: cell-based; details: read-out: Machupo (Plaque reduction) EC50
[4] = tested on: Guanarito virus; assay type: cell-based; details: read-out: Guanarito (Plaque reduction) EC50
[5] = tested on: Junin virus; assay type: cell-based; details: read-out: Junin (Plaque reduction) EC50
[6] = tested on: Tacaribe virus; parameters: species or system BALB/c mice; details: mouse, in vivo
[7] = tested on: ST-336 drug resistant Tacaribe virus variants (DR#1-4); assay type: cell-based
[8] = tested on: Vero cells
[9] = tested on: S. typhimurium tester strains TA7007, TA7006 and TA98
[10] = in vivo
[11] = in vivo, 10 mg/kg
[12] = mouse, in vivo, ip, 100 mg/kg/day
[13] = tested on: Candid-1 vaccine virus; assay type: cell-based, Junin virus (vaccine strain); details: read-out: Candid1 (CPE) EC50
[14] = tested on: Amapari virus; assay type: cell-based; details: read-out: Amapari (CPE) EC50
[15] = tested on: Lassa virus; assay type: cell-based; details: read-out: Lassa (plaque reduction) EC50
[16] = tested on: LCMV; assay type: cell-based, lymphocytic choriomeningitis virus; details: read-out: LCMV (Elisa) EC50
[17] = tested on: HSV-1; assay type: cell-based, herpes simplex virus 1; details: read-out: HSV-1 (CPE) EC50
[18] = tested on: CMV; assay type: cell-based, cytomegalovirus; details: read-out: CMV (Elisa) EC50
[19] = tested on: vaccinia virus; assay type: cell-based; details: read-out: Vaccinia (CPE) EC50
[20] = tested on: RSV-A; assay type: cell-based, Respiratory syncytial virus; details: read-out: RSV-A (CPE) EC50
[21] = tested on: Rotavirus; assay type: cell-based; details: read-out: Rotavirus (CPE) EC50
[22] = tested on: SARS-CoV; assay type: cell-based; details: read-out: SARS (CPE) EC50
[23] = tested on: Ebola virus; assay type: cell-based; details: read-out: Ebola (CPE) EC50
[24] = tested on: Tacaribe virus; assay type: cell-based
[25] = tested on: intact Tacaribe virion; assay type: binding, Tacaribe virus
[26] = tested on: intact Tacaribe virion; assay type: binding, Tacaribe virus; remark: listed apart in the source
[27] = in vivo; remark: listed apart in the source

## CC(NC(=O)NNS(=O)(=O)c1ccc(OC(F)F)cc1)(C(F)(F)F)C(F)(F)F [ST-294, N-2-(1,1,1,3,3,3-hexafluoro-1-methylpropyl)-2-[(4-difluoromethoxyphenyl)sulfonyl]hydrazine-1-carboxamide]
[1]
  in vitro antiviral concentration required to inhibit Tacaribe virus CPE (EC50): 0.066 µg/mL
  EC50: 120 nM
[2]
  EC50: 100 nM
[3]
  EC50: 300 nM
[4]
  EC50: 1000 nM
[5]
  EC50: 300 nM
[6]
  efficacy (survival, delay in death): showed efficacy
[7]
  susceptibility of drug resistant Tacaribe mutants (DR#1-4): cross-resistance
[8]
  CC50: > 50000 nM
[9]
  Genotoxicity (Ames test): negative
[10]
  PK (rat/oral) ½ life: 2 h
[10]; rat, po
  Cmax (serum levels): 6670 ng/mL
[11]
  PK (newborn mouse/IP) Cmax: 2910 ng/mL
  PK (newborn mouse/IP) ½ life: 3 h
[12]
  tolerability: well tolerated

## CCC(NC(=O)NNS(=O)(=O)c1ccc(C)cc1)(C(F)(F)F)C(F)(F)F [ST-336]
[1]
  EC50: 55 nM
[1]; read-out: Tacaribe (CPE) EC90
  EC90: 125 nM
[2]
  EC50: 100 nM
[13]
  EC50: 62 nM
[14]
  EC50: > 20000 nM
[3]
  EC50: 150 nM
[4]
  EC50: 300 nM
[5]
  EC50: 150 nM
[15]
  EC50: > 20000 nM
[16]
  EC50: > 20000 nM
[17]
  EC50: > 20000 nM
[18]
  EC50: > 20000 nM
[19]
  EC50: > 20000 nM
[20]
  EC50: > 20000 nM
[21]
  EC50: > 20000 nM
[22]
  EC50: > 20000 nM
[23]
  EC50: > 20000 nM
[24]
  effect on Tacaribe virus yield: no effect on virus yield
  effect on Tacaribe virus yield by time of addition: exerted its inhibitory effect only at the very early stage in the virus life cycle
[25]
  binding to intact virus (serial dilution): binds with at least a slow Koff to intact protein present on Tacaribe virus
[26]
  binding to intact virions (dialysis): binds intact virions with a very slow dissociation constant
[7]
  growth of ST-336 DR isolates in the presence of compound: unaffected
[27]
  pharmacokinetic (PK) properties in rodents: poor pharmacokinetic (PK) properties
